Results as given in patent publication US7612064B2, “Sulfopyrroles” (Takeda Pharmaceutical Company Limited, priority 2003, dated 2009).
pIC50: −log10 of the molar value.

What was measured:
MRC5 = assay: MTS proliferation assay; format: cell-based; conditions: MRC5, 72 h
In short: (§1)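 Proliferation is assessed by MTS conversion, measured as 492 nm absorption. Cells are treated for three days (72 h) with four compound concentrations between 0.3 and 10 μM.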

Jily = assay: MTS proliferation assay; format: cell-based; conditions: 72 h
In short: as §1

HeLa [1] = assay: PI staining for cell cycle distribution; format: cell-based, human; design: key: 0: no effect; 1: weak effect; 2: strong effect; conditions: HeLa 10μM, 48 h
Protocol: (§2) 1-2*10^5 cells are seeded into 24 well tissue culture plates and incubated for 24 h prior to compound addition. […] Adherent cells are harvested by trypsinization. The cell suspensions are fixed by adding 2 parts ice cold ethanol 100% while vortexing. Then the samples are stored for>2 h at −20° C. Subsequently the cells are washed with PBS once and resuspended in 250 μl PBS containing 50 μg/ml PI (Calbiochem # 537059), then the samples are incubated at 37° C. for 30 min and subsequently analyzed on a FACSCalibur™ monitoring linear PI fluorescence activity on FL2. The readout allows the detection of a possible direct or indirect influence of the tested compounds on the cell cycle. The following events can occur: a) Generation of a subG1 peak indicative for DNA fragmentation, b) increase of the cell population arrested in G2M phase. Both events are scored by 1 for weak and 2 for strong occurrence. 0 indicates no occurrence at all.

Jurkat [2] = assay: PI staining for cell cycle distribution; format: cell-based, human; design: key: 0: no effect; 1: weak effect; 2: strong effect; conditions: Jurkat 3μM, 48 h
Protocol: as §2

HeLa [3] = assay: MTS proliferation assay; format: cell-based, human; conditions: 72 h
In short: as §1

Jurkat [4] = assay: MTS proliferation assay; format: cell-based, human; conditions: 72 h
In short: as §1

[5] = Hoechst 33342 nuclear staining; format: cell-based; conditions: 24 h or 48 h incubation; for Hoechst 33342 nuclear staining score, H460: H460 cells; for Hoechst 33342 nuclear staining score, HeLa: HeLa cells; for Hoechst 33342 nuclear staining score, Jily: Jily cells; for Hoechst 33342 nuclear staining score, Jurkat: Jurkat cells; for Hoechst 33342 nuclear staining score, MRC5: MRC5 cells;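 as to all read-outs here: apoptotic nuclei scored 0 none 1 weak under 50% of cells 2 strong over 50% of cells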
In short: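 After a further 30 min incubation, plates were inspected on a standard inverted fluorescence microscope. The fraction of apoptotic nuclei and other apoptosis-specific morphology were scored as 0 for no activity, 1 for weak activity in less than 50% of the cells, and 2 for strong activity in more than 50% of the cells.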

[6] = conc 0.1 (final concentrations in μM)
[7] = conc 0.3 (final concentrations in μM)
[8] = conc 1 (final concentrations in μM)
[9] = conc 3 (final concentrations in μM)

Cc1ccc(S(=O)(=O)n2cc(-c3ccc(S(N)(=O)=O)cc3)cc2-c2ccc3c(c2)OCO3)cc1 [Example 51]
pIC50 (MRC5): > 6.00
pIC50 (Jily): > 6.00
PI staining for cell cycle distribution, G2M (HeLa [1]): 2
PI staining for cell cycle distribution, subG1 (HeLa [1]): 0
PI staining for cell cycle distribution, G2M (Jurkat [2]): 1
PI staining for cell cycle distribution, subG1 (Jurkat [2]): 0
pIC50 (HeLa [3]): > 6.00
pIC50 (Jurkat [4]): > 6.00
Hoechst 33342 nuclear staining score, H460 [5, 6]: 0
Hoechst 33342 nuclear staining score, H460 [5, 7]: 0
Hoechst 33342 nuclear staining score, H460 [5, 8]: 2 (strong activity comprising more than 50% of the cells)
Hoechst 33342 nuclear staining score, H460 [5, 9]: 2 (strong activity comprising more than 50% of the cells)
Hoechst 33342 nuclear staining score, HeLa [5, 6]: 0
Hoechst 33342 nuclear staining score, HeLa [5, 7]: 0
Hoechst 33342 nuclear staining score, HeLa [5, 8]: 2 (strong activity comprising more than 50% of the cells)
Hoechst 33342 nuclear staining score, HeLa [5, 9]: 2 (strong activity comprising more than 50% of the cells)
Hoechst 33342 nuclear staining score, Jily [5, 6]: 0
Hoechst 33342 nuclear staining score, Jily [5, 7]: 0
Hoechst 33342 nuclear staining score, Jily [5, 8]: 2 (strong activity comprising more than 50% of the cells)
Hoechst 33342 nuclear staining score, Jily [5, 9]: 2 (strong activity comprising more than 50% of the cells)
Hoechst 33342 nuclear staining score, Jurkat [5, 6]: 0
Hoechst 33342 nuclear staining score, Jurkat [5, 7]: 0
Hoechst 33342 nuclear staining score, Jurkat [5, 8]: 2 (strong activity comprising more than 50% of the cells)
Hoechst 33342 nuclear staining score, Jurkat [5, 9]: 2 (strong activity comprising more than 50% of the cells)
Hoechst 33342 nuclear staining score, MRC5 [5, 6]: 0
Hoechst 33342 nuclear staining score, MRC5 [5, 7]: 0
Hoechst 33342 nuclear staining score, MRC5 [5, 8]: 1 (weak activity comprising less than 50% of the cells)
Hoechst 33342 nuclear staining score, MRC5 [5, 9]: 1 (weak activity comprising less than 50% of the cells)
Hoechst 33342 nuclear staining score, PBLs [5, 6]: 0
Hoechst 33342 nuclear staining score, PBLs [5, 7]: 0
Hoechst 33342 nuclear staining score, PBLs [5, 8]: 0
Hoechst 33342 nuclear staining score, PBLs [5, 9]: 0

COc1cc(-c2cc(CNc3ccc(-n4ccnc4)cc3)cn2S(=O)(=O)c2ccc(C)cc2)cc(OC)c1OC [Example 55]
pIC50 (MRC5): > 6.00
pIC50 (Jily): < 6.00
PI staining for cell cycle distribution, G2M (HeLa [1]): 2
PI staining for cell cycle distribution, subG1 (HeLa [1]): 0
PI staining for cell cycle distribution, G2M (Jurkat [2]): 1
PI staining for cell cycle distribution, subG1 (Jurkat [2]): 0
pIC50 (HeLa [3]): < 6.00
pIC50 (Jurkat [4]): > 6.00
Hoechst 33342 nuclear staining score, H460 [5, 6]: 0
Hoechst 33342 nuclear staining score, H460 [5, 7]: 0
Hoechst 33342 nuclear staining score, H460 [5, 8]: 0
Hoechst 33342 nuclear staining score, H460 [5, 9]: 2 (strong activity comprising more than 50% of the cells)
Hoechst 33342 nuclear staining score, HeLa [5, 6]: 0
Hoechst 33342 nuclear staining score, HeLa [5, 7]: 0
Hoechst 33342 nuclear staining score, HeLa [5, 8]: 1 (weak activity comprising less than 50% of the cells)
Hoechst 33342 nuclear staining score, HeLa [5, 9]: 2 (strong activity comprising more than 50% of the cells)
Hoechst 33342 nuclear staining score, Jily [5, 6]: 0
Hoechst 33342 nuclear staining score, Jily [5, 7]: 0
Hoechst 33342 nuclear staining score, Jily [5, 8]: 2 (strong activity comprising more than 50% of the cells)
Hoechst 33342 nuclear staining score, Jily [5, 9]: 2 (strong activity comprising more than 50% of the cells)
Hoechst 33342 nuclear staining score, Jurkat [5, 6]: 0
Hoechst 33342 nuclear staining score, Jurkat [5, 7]: 0
Hoechst 33342 nuclear staining score, Jurkat [5, 8]: 2 (strong activity comprising more than 50% of the cells)
Hoechst 33342 nuclear staining score, Jurkat [5, 9]: 2 (strong activity comprising more than 50% of the cells)
Hoechst 33342 nuclear staining score, MRC5 [5, 6]: 0
Hoechst 33342 nuclear staining score, MRC5 [5, 7]: 0
Hoechst 33342 nuclear staining score, MRC5 [5, 8]: 0
Hoechst 33342 nuclear staining score, MRC5 [5, 9]: 1 (weak activity comprising less than 50% of the cells)
Hoechst 33342 nuclear staining score, PBLs [5, 6]: 0
Hoechst 33342 nuclear staining score, PBLs [5, 7]: 0
Hoechst 33342 nuclear staining score, PBLs [5, 8]: 0
Hoechst 33342 nuclear staining score, PBLs [5, 9]: 0

COc1cc(-c2cc(-c3cncc(C(N)=O)c3)cn2S(=O)(=O)c2ccc(C)cc2)cc(OC)c1OC [Example 56]
pIC50 (MRC5): > 6.00
pIC50 (Jily): > 6.00
PI staining for cell cycle distribution, G2M (HeLa [1]): 2
PI staining for cell cycle distribution, subG1 (HeLa [1]): 0
PI staining for cell cycle distribution, G2M (Jurkat [2]): 1
PI staining for cell cycle distribution, subG1 (Jurkat [2]): 0
pIC50 (HeLa [3]): > 6.00
pIC50 (Jurkat [4]): > 6.70
Hoechst 33342 nuclear staining score, H460 [5, 6]: 0
Hoechst 33342 nuclear staining score, H460 [5, 7]: 2 (strong activity comprising more than 50% of the cells)
Hoechst 33342 nuclear staining score, H460 [5, 8]: 2 (strong activity comprising more than 50% of the cells)
Hoechst 33342 nuclear staining score, H460 [5, 9]: 2 (strong activity comprising more than 50% of the cells)
Hoechst 33342 nuclear staining score, HeLa [5, 6]: 0
Hoechst 33342 nuclear staining score, HeLa [5, 7]: 0
Hoechst 33342 nuclear staining score, HeLa [5, 8]: 2 (strong activity comprising more than 50% of the cells)
Hoechst 33342 nuclear staining score, HeLa [5, 9]: 2 (strong activity comprising more than 50% of the cells)
Hoechst 33342 nuclear staining score, Jily [5, 6]: 0
Hoechst 33342 nuclear staining score, Jily [5, 7]: 2 (strong activity comprising more than 50% of the cells)
Hoechst 33342 nuclear staining score, Jily [5, 8]: 2 (strong activity comprising more than 50% of the cells)
Hoechst 33342 nuclear staining score, Jily [5, 9]: 2 (strong activity comprising more than 50% of the cells)
Hoechst 33342 nuclear staining score, Jurkat [5, 6]: 0
Hoechst 33342 nuclear staining score, Jurkat [5, 7]: 2 (strong activity comprising more than 50% of the cells)
Hoechst 33342 nuclear staining score, Jurkat [5, 8]: 2 (strong activity comprising more than 50% of the cells)
Hoechst 33342 nuclear staining score, Jurkat [5, 9]: 2 (strong activity comprising more than 50% of the cells)
Hoechst 33342 nuclear staining score, MRC5 [5, 6]: 0
Hoechst 33342 nuclear staining score, MRC5 [5, 7]: 2 (strong activity comprising more than 50% of the cells)
Hoechst 33342 nuclear staining score, MRC5 [5, 8]: 2 (strong activity comprising more than 50% of the cells)
Hoechst 33342 nuclear staining score, MRC5 [5, 9]: 2 (strong activity comprising more than 50% of the cells)
Hoechst 33342 nuclear staining score, PBLs [5, 6]: 0
Hoechst 33342 nuclear staining score, PBLs [5, 7]: 0
Hoechst 33342 nuclear staining score, PBLs [5, 8]: 0
Hoechst 33342 nuclear staining score, PBLs [5, 9]: 0
